From patent publication US20250011316A1, “PEROXIREDOXIN 3 INHIBITORS AND METHODS OF USE FOR TREATING CANCER” (Wake Forest University Health Sciences, priority 2022, published 2025)
Values after ≈ are worked out from the molar mass of the structure shown.

Columns and labels:
Solubility Assay (HPLC) = format: physicochemical; conditions: HEPES/NaCl buffer, aqueous with cosolvent or surfactant or cyclodextrin, kinetic from dmso stock; 20 mM HEPES, 100 mM NaCl, pH 7.5, 18-24 hours at ambient temperature; read-out: Solubility
Method in brief: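 Compound from 20 mM DMSO stock added to 20 mM HEPES, 100 mM NaCl, pH 7.5, rotated 18-24 h at ambient temperature, then centrifuged 10 min at 20,000×g to remove solids. Supernatant diluted in DMSO and quantified by HPLC peak area against the closest of 200 μM and 20 μM standards, corrected for dilution.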

purified human PRX3 = molecular target: T1, purified human PRX3 (Homo sapiens, UniProt P30048); experiment: Biochemical PRX3 Inhibition Assay (non-reducible crosslink by SDS PAGE + single adduct by MALDI-TOF MS); conditions: 100 μM PRX3 with TRX2/thioredoxin reductase/NADPH system and hydrogen peroxide, 1-2 hr at 37° C.
T1 construct: made in house
T1 sequence (P30048 62-256): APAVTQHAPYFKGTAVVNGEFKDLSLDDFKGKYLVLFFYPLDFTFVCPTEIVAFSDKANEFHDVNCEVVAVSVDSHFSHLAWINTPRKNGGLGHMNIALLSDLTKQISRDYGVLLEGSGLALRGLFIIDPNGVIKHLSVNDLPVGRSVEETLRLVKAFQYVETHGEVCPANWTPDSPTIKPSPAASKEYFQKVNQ
Method in brief: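 Purified human PRX3 (100 µM) cycled with TRX2, thioredoxin reductase, NADPH regenerating system and H2O2, incubated with compound 1–2 h at 37 °C. Non-reducible crosslink quantified by densitometry of SDS-PAGE (~46 vs ~23 kDa) after DTT; single-adduct fraction from MALDI-TOF MS peak intensities, background-corrected against DMSO.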

[1] = tested on: human SK—OV-3 ovarian cancer cells; experiment: Cellular Activity Assay (cytotoxicity, crystal violet); format: cell-based; conditions: Homo sapiens, SK—OV-3 cells, treated for 48 hr, 0.1-100 μM, crystal violet absorbance at 540 nm
Method in brief: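 SK-OV-3 cells plated, allowed 24 h recovery, then treated 48 hr with compound at 0.1-100 μM. Live cells were fixed (3.0% formaldehyde), stained with 0.1% crystal violet and read at 540 nm. EC50 was fitted after normalizing to matched-DMSO controls.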

[2] = tested on: Enterococcus hirae (ATCC #10541); experiment: Antimicrobial Activity Assay (MIC / growth inhibition); format: cell-based; conditions: ATCC10541; Enterococcus hirae; analogs tested at 20 μM final concentration
Procedure: The overnight growth was then diluted into growth media to make a single solution of E. hirae with a final optical density at 600 nm=0.02 AU. A 20 mM stock solution of Thiostrepton in DMSO was made and used to make multiple dilutions of TS in DMSO. Each TS dilution (0.1 mL) was then added to a test tube containing 10 mL of the diluted E. hirae and grown at 37° C. overnight while shaking at 180 rpm. The next morning, each tube was visually inspected to determine if the cells grew. Final concentrations tested were 0.120, 0.090, 0.075, 0.060, 0.045, 0.030, and 0.015 μM TS. […] Three replicates were made on three separate days (n=9). […] For TS analogs, the dilute E. hirae was treated with 20 μM final concentration of each analog (three replicates each). […] DMSO was used as a positive control (complete cell growth) and 20 μM thiostrepton was used as a negative control.

| SMILES | solubility (Solubility Assay (HPLC)) | PRX3 Inhibition (Crosslink + Mono-adduct) (purified human PRX3) | EC50 [1] | MIC [2] | EC50 ([1]; SK-OV-3, 48 h) |
| --- | --- | --- | --- | --- | --- |
| C=C(NC(=O)c1csc(C2=CCN(C(=O)OC(C)(C)C)CC2)n1)C(=O)NC(=C)C(=O)OC [Compound 9, Tert-butyl 4-(4-((3-((3-methoxy-3-oxoprop-1-en-2-yl)amino)-3-oxoprop-1-en-2-yl)carbamoyl)thiazol-2-yl)-3,6-dihydropyridine-1(2H)-carboxylate] | < 100 µM | +++ (>90%) | 1 to 10 µM | > 20 µM |  |
| C=C(NC(=O)c1csc(-c2cccc(COCCOC)c2)n1)C(=O)NC(=C)C(=O)OC [Compound 27, Methyl 2-(2-(2-(3-((2-methoxyethoxy)methyl)phenyl)thiazole-4-carboxamido)acrylamido)acrylate] | < 100 µM | +++ (>90%) | 1 to 10 µM | > 20 µM |  |
| C=C(NC(=O)c1csc(N2CCC(NC(=O)OCCOC)CC2)n1)C(=O)NC(=C)C(=O)OC [Compound 33, Methyl 2-(2-(2-(4-(((2-methoxyethoxy)carbonyl)amino)piperidin-1-yl)thiazole-4-carboxamido)acrylamido)acrylate] | > 1000 µM | +++ (>90%) | 25 to 100 µM | > 20 µM |  |
| C=C(NC(=O)c1csc(N2CCC(NC(=O)CCCCCNC(=O)OC(C)(C)C)CC2)n1)C(=O)NC(=C)C(=O)OC [Compound 13, Methyl 2-(2-(2-(4-(6-((tert-butoxycarbonyl)amino)hexanamido)piperidin-1-yl)thiazole-4-carboxamido)acrylamido)acrylate] | 100 to 1000 µM (≈ 59.3 to 593 µg/mL) | +++ (>90%) |  | > 20 µM | 1 to 10 µM |
| C=C(NC(=O)c1csc(-c2cccc(C(=O)OC(C)(C)C)c2)n1)C(=O)NC(=C)C(=O)OC [Compound 14, Tert-butyl 3-(4-((3-((3-methoxy-3-oxoprop-1-en-2-yl)amino)-3-oxoprop-1-en-2-yl)carbamoyl)thiazol-2-yl)benzoate] | < 100 µM | +++ (>90%) | 25 to 100 µM | > 20 µM |  |
| C=C(NC(=O)c1csc(-c2ccc(C(=O)NCCCCCCOS(C)(=O)=O)nc2)n1)C(=O)NC(=C)C(=O)OC [Compound 6, Methyl 2-(2-(2-(6-((6-((methylsulfonyl)oxy)hexyl)carbamoyl)pyridine-3-yl)thiazole-4-carboxamido)acrylamido)acrylate] | < 100 µM | +++ (>90%) | 1 to 10 µM | > 20 µM |  |
| C=C(NC(=O)c1csc(-c2ccc(C(=O)NCCOC)cc2)n1)C(=O)NC(=C)C(=O)OC [Compound 10, Methyl 2-(2-(2-(4-((2-methoxyethyl)carbamoyl)phenyl)thiazole-4-carboxamido)acrylamido)acrylate] | < 100 µM | +++ (>90%) | 1 to 10 µM | > 20 µM |  |
| C=C(NC(=O)c1csc(-c2ccc(CNC(=O)OC(C)(C)C)cc2)n1)C(=O)NC(=C)C(=O)OC [Compound 8, Methyl 2-(2-(2-(4-(((tert-butoxycarbonyl)amino)methyl)phenyl)thiazole-4-carboxamido)acrylamido)acrylate] | < 100 µM | +++ (>90%) | 1 to 10 µM | > 20 µM |  |
| C=C(NC(=O)c1csc(-c2ccc(CNC(=O)OCCOC)cc2)n1)C(=O)NC(=C)C(=O)OC [Compound 26, Methyl 2-(2-(2-(4-((((2-methoxyethoxy)carbonyl)amino)methyl)phenyl)thiazole-4-carboxamido)acrylamido)acrylate] | 100 to 1000 µM (≈ 48.9 to 489 µg/mL) | ++ (50-90%) | 1 to 10 µM | > 20 µM |  |
| C=C(NC(=O)c1csc(N2CC[C@@H](NC(=O)OCC)C2)n1)C(=O)NC(=C)C(=O)OC [Compound 23, Methyl (R)-2-(2-(2-(3-((ethoxycarbonyl)amino)pyrrolidin-1-yl)thiazole-4-carboxamido)acrylamido)acrylate] | < 100 µM | +++ (>90%) | 1 to 10 µM | > 20 µM |  |
